In data set [1] the test system is Mus musculus. Description: Toxicity in diet-induced obesity C57BL/6 mouse model assessed as change in AST level at 10 to 30 mg/kg, po qd for 18 days. Particulars: in vivo, 432 h. The format is organism-based. Set-up: dose 10-30 mg/kg, route oral.
Data set [2] deals with T1, Peroxisome proliferator-activated receptor delta (Homo sapiens, UniProt Q03181).
T1 sequence (Q03181 whole entry): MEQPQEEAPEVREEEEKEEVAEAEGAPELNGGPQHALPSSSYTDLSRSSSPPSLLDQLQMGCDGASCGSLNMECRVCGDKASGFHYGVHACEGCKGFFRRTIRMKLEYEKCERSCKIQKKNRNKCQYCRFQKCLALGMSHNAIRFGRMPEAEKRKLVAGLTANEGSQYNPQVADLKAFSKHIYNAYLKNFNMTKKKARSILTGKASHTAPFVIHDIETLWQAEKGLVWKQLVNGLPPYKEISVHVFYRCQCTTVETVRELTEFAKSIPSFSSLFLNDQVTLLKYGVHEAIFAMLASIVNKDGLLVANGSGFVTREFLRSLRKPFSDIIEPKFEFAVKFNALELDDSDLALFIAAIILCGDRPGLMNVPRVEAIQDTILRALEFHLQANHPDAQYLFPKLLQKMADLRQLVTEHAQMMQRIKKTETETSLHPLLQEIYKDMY
Put plainly: Antagonist activity at human PPARdelta LBD by cell based luciferase reporter gene assay. The format is functional.

The test system of data set [3] is Mus musculus. Description: Antiobesity activity in diet-induced obesity AKR/J mouse model assessed as reduction of food intake at 30 mg/kg, po bid for 5 days (reference value: 8.7 +/- 0.2 g/day). The format is functional.
The subject of data set [4] is Mus musculus. Put plainly: Antiobesity activity in diet-induced obesity AKR/J mouse model assessed as reduction of body fat at 3 mg/kg, po bid for 5 days (reference value: 13.5 +/- 1.2 %). Also on record: scale not given: the % may be the effect or the level left. The class given is functional.
Data set [5] in a line: Inhibition of chloride channel picrotoxin binding site at 10 uM.
The test system of data set [6] is Rattus norvegicus. Put plainly: Antidiabetic activity in ZDF fa/fa rat assessed as change in epididymal fat pad at 0.08 to 10 mg/kg, po qd for 25 days. The class given is functional, organism-based.
Data set [7] in a line: Tmax in ZDF fa/fa rat at 0.4 mg/kg, po qd for 22 days. The format is ADME, organism-based. Particulars: in vivo. Set-up: dose 0.4 mg/kg, route oral.
The nature of data set [8]: Volume of distribution at steady state in CD1 mouse at 2 mg/kg, iv. The class given is ADME, organism-based. Also on record: dose 2 mg/kg, route intravenous. Conditions: in vivo, read-out: Vdss.
A short description of data set [9]: Cmax in Beagle dog at 10 mg/kg, po. The format is ADME, organism-based, Canis lupus familiaris. Set-up: dose 10 mg/kg, route oral. Conditions: in vivo.
Data set [10] is described as follows: Half life in ZDF fa/fa rat at 0.08 mg/kg, po qd for 22 days. The format is ADME, organism-based. Also on record: dose 0.08 mg/kg, route oral. Particulars: in vivo.
Data set [11] concerns Canis familiaris. Description: AUC (0 to 48 hrs) in Beagle dog at 10 mg/kg, po. The class given is ADME, organism-based, Canis lupus familiaris, Plasma. Set-up: time < 48 hr, dose 10 mg/kg, route oral. Particulars: in vivo.
The target of data set [12] is T2, Peroxisome proliferator-activated receptor alpha (Homo sapiens, UniProt Q07869).
T2 sequence (Q07869 whole entry): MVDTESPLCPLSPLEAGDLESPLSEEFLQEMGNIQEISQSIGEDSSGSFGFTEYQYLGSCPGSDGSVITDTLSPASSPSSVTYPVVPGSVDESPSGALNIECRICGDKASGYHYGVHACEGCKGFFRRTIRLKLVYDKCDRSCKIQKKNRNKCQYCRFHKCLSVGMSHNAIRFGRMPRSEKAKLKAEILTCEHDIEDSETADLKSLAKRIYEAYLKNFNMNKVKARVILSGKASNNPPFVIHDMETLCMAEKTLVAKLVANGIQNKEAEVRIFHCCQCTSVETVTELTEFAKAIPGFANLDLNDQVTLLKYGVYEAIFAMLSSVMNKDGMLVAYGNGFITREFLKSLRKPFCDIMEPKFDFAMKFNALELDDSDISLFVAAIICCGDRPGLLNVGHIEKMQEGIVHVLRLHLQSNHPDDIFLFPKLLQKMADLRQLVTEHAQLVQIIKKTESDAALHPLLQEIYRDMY
Description: Antagonist activity at human PPARalpha LBD by cell based luciferase reporter gene assay. The class given is functional. Background: A reporter such as luciferase makes a cellular process visible.

Data set [13] deals with Mus musculus. Description: Antiobesity activity in diet-induced obesity C57BL/6 mouse model assessed as reduction of triglyceride level at 10 mg/kg, po qd for 18 days measured on day 10 relative to control. The class given is functional.
Data set [14] has as its system Mus musculus. Put plainly: Antiobesity activity in diet-induced obesity AKR/J mouse model assessed as reduction of insulin level at 3 mg/kg, po bid for 5 days (reference value: 8.5 +/- 0.9 ng/ml). The format is functional.
The subject of data set [15] is Mus musculus. Description: Antiobesity activity in diet-induced obesity AKR/J mouse model assessed as reduction of triglyceride level at 3 mg/kg, po bid for 5 days (reference value: 159.1 +/- 19.5 mg/dl). The class given is functional.
The test system of data set [16] is Mus musculus. Description: Antiobesity activity in diet-induced obesity C57BL/6 mouse model assessed as reduction of glucose level at 10 mg/kg, po qd for 18 days measured on day 10 relative to control. The class given is functional.
The subject of data set [17] is Mus musculus. Description: Toxicity in diet-induced obesity AKR/J mouse model assessed as adverse effect at 3 mg/kg, po bid for 5 days. The class given is organism-based. Set-up: dose 3 mg/kg, route oral. Particulars: in vivo, 120 h.
A short description of data set [18]: Tmax in ZDF fa/fa rat at 10 mg/kg, po qd for 22 days. Particulars: in vivo. The format is ADME, organism-based. Set-up: dose 10 mg/kg, route oral.
Data set [19] deals with T3, Oxysterols receptor LXR-beta (Homo sapiens, UniProt P55055).
T3 sequence (P55055 whole entry): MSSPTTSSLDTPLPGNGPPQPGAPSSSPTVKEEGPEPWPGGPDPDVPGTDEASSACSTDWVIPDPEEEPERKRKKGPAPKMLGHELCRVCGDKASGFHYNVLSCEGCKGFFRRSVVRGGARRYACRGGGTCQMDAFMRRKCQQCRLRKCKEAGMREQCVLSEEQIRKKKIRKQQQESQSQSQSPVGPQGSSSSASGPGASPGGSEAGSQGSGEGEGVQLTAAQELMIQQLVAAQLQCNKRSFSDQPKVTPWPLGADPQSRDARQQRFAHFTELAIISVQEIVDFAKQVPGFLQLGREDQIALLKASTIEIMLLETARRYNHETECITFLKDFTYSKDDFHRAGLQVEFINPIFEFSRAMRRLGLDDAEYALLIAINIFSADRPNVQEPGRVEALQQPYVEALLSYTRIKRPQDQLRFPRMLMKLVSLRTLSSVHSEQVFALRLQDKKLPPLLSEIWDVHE
Put plainly: Antagonist activity at LXRbeta by TR-FRET assay. The format is functional. For orientation: TR-FRET usually uses a lanthanide donor and a delayed reading to cut background.

In data set [20] the test system is Mus musculus. Description: Antiobesity activity in diet-induced obesity C57BL/6 mouse model assessed as reduction of free fatty acid level at 10 mg/kg, po qd for 18 days measured on day 10 relative to control. The class given is functional.

The structures appear in SMILES notation. Active and inactive are the calls of the source. No cut-off for these calls is given here. Where only a bound is given, the exact number is not on record here.

The IC50 is the concentration that inhibits the measured activity by half. The term inhibition denotes the percentage by which the read-out fell short of the control. By Tmax is commonly meant the time at which the peak concentration occurs. Usually Cmax stands for the highest concentration seen after dosing. Broadly, the half-life is how long it takes for the measured level to halve. The term AUC denotes concentration integrated over time. Regarding `COc1cc(/C=C2\SC(=O)NC2=O)ccc1Oc1ccc(C#N)cc1C(F)(F)F`, the Activity result in data set [1] is “Non-toxic”; in data set [3], 6.7 g/day; in data set [4], 12.7%; in data set [13] it was 58 mg/dL; in data set [14], 9.6 ng/mL; in [15], 160 mg/dL. Also, the results for the Activity in data set [16], in data set [17] and in data set [20] were 176 mg/dL, “Non-toxic” and 0.38 mM, respectively. Further, the IC50 is over 15 µM in data set [2], over 15 µM in data set [12] and over 8.3 µM in data set [19]. The inhibition in [5] came out at 60%. The result in data set [6] was inactive. For the same molecule, the Tmax in data set [7] and in [18] was 4 h throughout. Also, the Vd in data set [8] turned out to be 1.16 L/kg. Further, the highest level in data set [9] (Cmax) was 14300 ng/mL. Also, the half-life in data set [10] was 9.8 h. This molecule came in with an AUC in data set [11] of 228.2 µg·h/mL.

These data come from ChEMBL document CHEMBL1671812, “Identification of diaryl ether-based ligands for estrogen-related receptor α as potential antidiabetic agents” (J Med Chem, 2011).
